Measurements: US8058475B2, “Substituted cyclohexylmethyl compounds” (Gruenenthal GmbH, priority 2005, dated 2011)
Read-outs that look alike come from different tables or passages of the source.

Biological target: human μ-opiate receptor (Homo sapiens, UniProt P35372)
Test: Affinity for the human μ-opiate receptor ([3H]-naloxone displacement, SPA, CHO-K1 membrane preparation)
Assay type: binding
Details: for inhibition at 1 µM: read-out: μ-Opioid receptor, % inhibition [1 μM]; for Ki: read-out: μ-Opioid receptor, Ki
[1] = 1 μM test substance, inhibition of specific [3H]-naloxone binding

Sequence of human μ-opiate receptor (P35372 whole entry): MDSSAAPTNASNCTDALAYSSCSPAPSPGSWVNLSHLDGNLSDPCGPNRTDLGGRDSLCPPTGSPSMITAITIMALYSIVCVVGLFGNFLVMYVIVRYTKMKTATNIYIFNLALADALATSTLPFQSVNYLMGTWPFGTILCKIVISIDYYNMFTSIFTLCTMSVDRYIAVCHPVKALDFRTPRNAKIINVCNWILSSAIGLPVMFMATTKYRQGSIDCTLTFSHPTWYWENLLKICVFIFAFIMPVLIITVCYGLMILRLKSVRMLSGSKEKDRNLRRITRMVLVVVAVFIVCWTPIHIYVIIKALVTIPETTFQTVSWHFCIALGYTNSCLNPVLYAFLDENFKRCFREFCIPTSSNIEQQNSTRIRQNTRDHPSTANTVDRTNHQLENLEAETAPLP

Row | SMILES | inhibition at 1 µM [%] | Ki [nM] | also measured
1 | CN(C)C(c1cccs1)C1CCC(CNC(=O)c2csc3ccccc23)CC1 (stereo not shown) [compound 302, benzo[b]thiophene-3-carboxylic acid [4-(dimethylamino-thiophen-2-yl-methyl)-cyclohexylmethyl]-amide] | 99 | 1.6 | 
2 | CN(C)C(c1ccccc1)C1CCC(CNC(=O)c2cccnc2Sc2ccc(Cl)cc2)CC1 (stereo not shown) [compound 374, 2-(4-chloro-phenylsulfanyl)-N-[4-(dimethylamino-phenyl-methyl)-cyclohexyl-methyl]-nicotinamide] | 84 |  | 
3 | CN(C)C(c1cccs1)C1CCC(CCNC(=O)c2ccccc2F)CC1 (stereo not shown) [compound 428, N-{2-[4-(dimethylamino-thiophen-2-yl-methyl)-cyclohexyl]-ethyl}-2-fluoro-benzamide] | 97 | 5.4 | 
4 | CN(C)C(c1ccccc1)C1CCC(CNC(=O)c2csc3ccccc23)CC1 (stereo not shown) [compound 292, benzo[b]thiophene-3-carboxylic acid [4-(dimethylamino-phenyl-methyl)-cyclohexylmethyl]-amide] | 102 | 1.3 | 
5 | CN(C)C(CCc1ccccc1)C1CCC(NC(=O)c2cccc(Br)c2)CC1 (stereo not shown) [compound 277, 3-bromo-N-[4-(1-dimethylamino-3-phenyl-propyl)-cyclohexyl]-benzamide] | 74 | 74 | 
6 | CCCCCC1(O)CCC(C(c2ccc(Cl)cc2)N(C)C)CC1 (stereo not shown) [compound 169, 4-[(4-chloro-phenyl)-dimethylamino-methyl]-1-pentyl-cyclohexanol] |  |  | inhibition at 1 µM [1]: 71%
7 | CN(C)C(c1ccccc1)C1CCC(NC(=O)c2cccc([N+](=O)[O-])c2)CC1 (stereo not shown) [compound 275, N-[4-(dimethylamino-phenyl-methyl)-cyclohexyl]-3-nitro-benzamide] | 74 | 100 | 
8 | COc1ccccc1C(=O)NC1CCC(C(c2cccs2)N(C)C)CC1 (stereo not shown) [compound 207, N-[4-(dimethylamino-thiophen-2-yl-methyl)-cyclohexyl]-2-methoxy-benzamide] | 92 | 28 | 
9 | Cc1onc(-c2c(Cl)cccc2Cl)c1C(=O)NCCC1CCC(C(c2cccs2)N(C)C)CC1 (stereo not shown) [compound 469, 3-(2,6-dichloro-phenyl)-5-methyl-isoxazole-4-carboxylic acid {2-[4-(dimethylamino-thiophen-2-yl-methyl)-cyclohexyl]-ethyl}-amide] | 87 | 57 | 
10 | CN(C)C(c1ccccc1)C1CCC(NC(=O)CC(C)(C)C)CC1 (single isomer, unassigned) [compound 228, N-[4-(dimethylamino-phenyl-methyl)-cyclohexyl]-3,3-dimethyl-butyramide] | 87 | 19 | 
11 | CN(C)C(c1ccccc1)C1CCC(NC(=O)c2cncc(Br)c2)CC1 (stereo not shown) [compound 235, 5-bromo-N-[4-(dimethylamino-phenyl-methyl)-cyclohexyl]-nicotinamide] | 84 | 61 | 
12 | CN(C)C(c1ccc(F)cc1)C1CCC(CCNC(=O)c2csc(-c3ccccc3)n2)CC1 (stereo not shown) [compound 464, 2-phenyl-thiazole-4-carboxylic acid (2-{4-[dimethylamino-(4-fluoro-phenyl)-methyl]-cyclohexyl}-ethyl)-amide] | 92 | 75 | 
13 | COc1c(C(=O)NCCC2CCC(C(c3ccc(F)cc3)N(C)C)CC2)csc1Cl (stereo not shown) [compound 475, 5-chloro-4-methoxy-thiophene-3-carboxylic acid (2-{4-[dimethylamino-(4-fluoro-phenyl)-methyl]-cyclohexyl}-ethyl)-amide] | 97 | 6.9 | 
14 | CN(C)C(c1ccccc1)C1CCC(NC(=O)c2cc(F)ccc2C(F)(F)F)CC1 (stereo not shown) [compound 281, N-[4-(dimethylamino-phenyl-methyl)-cyclohexyl]-5-fluoro-2-trifluoromethyl-benzamide] | 73 | 46 | 
15 | CN(C)C(c1ccccc1)C1CCC(CCNC(=O)c2c(Cl)cccc2Cl)CC1 (stereo not shown) [compound 413, 2,6-dichloro-N-{2-[4-(dimethylamino-phenyl-methyl)-cyclohexyl]-ethyl}-benzamide] | 81 | 31 | 
16 | COc1cccc(CC(=O)NCCC2CCC(C(c3cccs3)N(C)C)CC2)c1 (stereo not shown) [compound 454, N-{2-[4-(dimethylamino-thiophen-2-yl-methyl)-cyclohexyl]-ethyl}-2-(3-methoxy-phenyl)-acetamide] | 87 | 51 | 
17 | CN(C)C(c1cccc(F)c1)C1CCC(CCNC(=O)c2ccc(F)cc2)CC1 (stereo not shown) [compound 409, N-(2-{4-[dimethylamino-(3-fluoro-phenyl)-methyl]-cyclohexyl}-ethyl)-4-fluoro-benzamide] | 84 | 28 | 
18 | CN(C)C(c1ccccc1)C1CCC(CNC(=O)c2cccc(Br)c2)CC1 (stereo not shown) [compound 358, 3-bromo-N-[4-(dimethylamino-phenyl-methyl)-cyclohexylmethyl]-benzamide] | 86 | 11 | 

Row | SMILES | inhibition at 1 µM [%] | Ki [nM] | also measured
19 | CN(C)C(c1ccccc1)C1CCC(CNC(=O)c2cc([N+](=O)[O-])cc([N+](=O)[O-])c2)CC1 (stereo not shown) [compound 392, N-[4-(dimethylamino-phenyl-methyl)-cyclohexylmethyl]-3,5-dinitro-benzamide] | 80 |  | Ki (acylated amines (Table 20)): 180 nM
20 | COc1cccc(C2(O)CCC(C(c3ccc(Cl)cc3)N(C)C)CC2)c1 (stereo not shown) [compound 164, 4-[(4-chloro-phenyl)-dimethylamino-methyl]-1-(3-methoxy-phenyl)-cyclohexanol] |  |  | inhibition at 1 µM [1]: 58%
21 | CN(C)C(c1ccc(F)cc1)C1CCC(CCNC(=O)c2ccc3ccccc3c2)CC1 (stereo not shown) [compound 442, naphthalene-2-carboxylic acid (2-{4-[dimethylamino-(4-fluoro-phenyl)-methyl]-cyclohexyl}-ethyl)-amide] | 86 | 110 | 
22 | CCCCCC1(O)CCC(C(c2cccc(F)c2)N(C)C)CC1 (stereo not shown) [compound 154, 4-[dimethylamino-(3-fluoro-phenyl)-methyl]-1-pentyl-cyclohexanol] |  |  | inhibition at 1 µM [1]: 50%
23 | CN(C)C(c1cccc(F)c1)C1CCC(CNC(=O)c2cccs2)CC1 (single isomer, unassigned) [compound 340, thiophene-2-carboxylic acid {4-[dimethylamino-(3-fluoro-phenyl)-methyl]-cyclohexylmethyl}-amide] |  | 55 | μ-Opioid receptor, % inhibition [1 μM] (1 µM): 91%
24 | CN(C)C(c1ccc(F)cc1)C1CCC(CCNC(=O)c2cccc(Cl)c2)CC1 (single isomer, unassigned) [compound 423, 3-chloro-N-(2-{4-[dimethylamino-(4-fluoro-phenyl)-methyl]-cyclohexyl}-ethyl)-benzamide] |  | 15 | μ-Opioid receptor, % inhibition [1 μM]: 83%
25 | CCSc1ncccc1C(=O)NCC1CCC(C(c2ccc(Cl)cc2)N(C)C)CC1 (stereo not shown) [compound 351, N-{4-[(4-chloro-phenyl)-dimethylamino-methyl]-cyclohexylmethyl}-2-ethyl-sulfanyl-nicotinamide] |  | 58 | μ-Opioid receptor, % inhibition [1 μM]: 89%
26 | CN(C)C(c1cccc(F)c1)C1CCC(CNC(=O)Cc2ccccc2)CC1 (single isomer, unassigned) [compound 319, N-{4-[dimethylamino-(3-fluoro-phenyl)-methyl]-cyclohexylmethyl}-2-phenyl-acetamide] | 95 | 15 | 
27 | COc1ccccc1C(=O)NCCC1CCC(C(c2ccc(F)cc2)N(C)C)CC1 (stereo not shown) [compound 432, N-(2-{4-[dimethylamino-(4-fluoro-phenyl)-methyl]-cyclohexyl}-ethyl)-2-methoxy-benzamide] | 95 | 18 | 
28 | CN(C)C(c1ccc(Cl)cc1)C1CCC(CCNC(=O)c2cccc(Cl)c2)CC1 (stereo not shown) [compound 399, 3-chloro-N-(2-{4-[(4-chloro-phenyl)-dimethylamino-methyl]-cyclohexyl}-ethyl)-benzamide] | 80 | 110 | 
29 | CN(C)C(c1ccccc1)C1CCC(CCNC(=O)c2ccccc2Cl)CC1 (stereo not shown) [compound 402, 2-chloro-N-{2-[4-(dimethylamino-phenyl-methyl)-cyclohexyl]-ethyl}-benzamide] | 96 | 7.9 | 
30 | CN(C)C(c1cccs1)C1CCC(CNC(=O)Cc2cccs2)CC1 (stereo not shown) [compound 291, N-[4-(dimethylamino-thiophen-2-yl-methyl)-cyclohexylmethyl]-2-thiophen-2-yl-acetamide] | 102 |  | 
31 | CN(C)C(c1ccccc1)C1CCC(CCNC(=O)c2ccc([N+](=O)[O-])cc2)CC1 (stereo not shown) [compound 458, N-{2-[4-(dimethylamino-phenyl-methyl)-cyclohexyl]-ethyl}-4-nitro-benzamide] | 93 | 49 | 
32 | COc1ccccc1C(=O)NCC1CCC(C(c2cccc(F)c2)N(C)C)CC1 (stereo not shown) [compound 368, N-{4-[dimethylamino-(3-fluoro-phenyl)-methyl]-cyclohexylmethyl}-2-methoxy-benzamide] | 84 | 34 | 
33 | CN(C)C(c1ccccc1)C1CCC(NC(=O)Cc2ccc(Cl)cc2)CC1 (stereo not shown) [compound 206, 2-(4-chloro-phenyl)-N-[4-(dimethylamino-phenyl-methyl)-cyclohexyl]-acetamide] | 93 | 56 | 
34 | COc1ccccc1C(=O)NCCC1CCC(C(c2ccccc2)N(C)C)CC1 (stereo not shown) [compound 414, N-{2-[4-(dimethylamino-phenyl-methyl)-cyclohexyl]-ethyl}-2-methoxy-benzamide] | 99 | 4.6 | 
35 | CC(Oc1ccccc1)C(=O)NC1CCC(C(c2cccc(F)c2)N(C)C)CC1 (single isomer, unassigned) [compound 215, N-{4-[dimethylamino-(3-fluoro-phenyl)-methyl]-cyclohexyl}-2-phenoxy-propionamide] | 90 | 34 | 
36 | CN(C)C(c1cccs1)C1CCC(CNC(=O)CC(C)(C)C)CC1 (stereo not shown) [compound 301, N-[4-(dimethylamino-thiophen-2-yl-methyl)-cyclohexylmethyl]-3,3-dimethyl-butyramide] | 99 | 2.7 | 
